Experimental data from US20050176813A1, “Novel chalcone derivatives and uses thereof” (priority 2002, published 2005).
Like-named read-outs stand apart in the source and are kept apart here.

Experiments:
[1] = biological target: T1, Kv1.3 (Homo sapiens, UniProt P22001); experiment: Kv1.3 channel block, estimated Kd (Table 1); assay type: binding
[2] = test system: Jurkat E6-1; experiment: Flow cytometric measurement of cell viability (PI uptake), Jurkat T-cells; assay type: cell-based; conditions: 48 h
Experimental: (§1) Flow Cytometric Measurement of Cell Viability
(§2) Jurkat E6-1 and MEL were seeded at 5×10^5 cells/ml in twelve-well plates. Drug (100 nM, 1 μM, 2.5 μM and 10 μM) was added in a final DMSO concentration of 0.1%. After 48 h of incubation, cells were harvested by sucking them off the plates. Cells were centrifuged, resuspended in 0.5 ml PBS containing 1 μg/ml propidium iodide (PI), and red fluorescence measured on a FACScan flow cytometer (Becton Dickinson) after 20 min (10^4 cells of every sample being analyzed). The percentage of dead cells was determined by their PI uptake. Incubation with 20% DMSO served as a control for setting the gates of the flow cytometer for dead cells.

[3] = test system: human peripheral blood lymphocytes; experiment: Proliferation test, [3H]-thymidine incorporation assay, anti-CD3 stimulated; assay type: cell-based; conditions: for Antiproliferative potency compared with Example 1: FIG. 1; for EC50: Homo sapiens, Lymphocyte, anti-CD3 stimulation, 48 h, read-out: EC50, suppression of proliferation of human peripheral blood lymphocytes
Experimental: Proliferation Test [^3H]-Thymidine Incorporation Assay
Resting peripheral blood mononuclear cells from healthy volunteers were seeded at 2×10^5 cells per well in medium (RPMI 1640 supplemented 10% fetal calf serum, 2 mM glutamine, 1 mM sodium pyruvate, 1% nonessential amino acids, 100 units/ml penicillin, 100 μg/ml streptomycin and 50 μM β-mercaptoethanol) in flat-bottom 96 well plates (final volume 200 μl). Cells pre-incubated with drug (60 min), were stimulated with 5 ng/ml anti-CD3 Ab) for 48 h. [^3H]-Thymidine (1 μCi per well) was added for the last 6 h. Cells were harvested onto glass fibre filters and radioactivity measured in a scintillation counter. All experiments were done in triplicate. Results are reported as normalised for maximum [^3H]-thymidine incorporation for controls.

[4] = biological target: Kv1.5 (Homo sapiens, UniProt P22460); experiment: Kv1.5 channel block, estimated Kd (Table 1); assay type: binding
[5] = test system: mice; experiment: Toxicity on intravenous injection into mice; assay type: in vivo
[6] = Cytotoxicity in vitro (remark in Table 1, summary of Table 2); assay type: cell-based; conditions: for Cytotoxicity in-vitro (summary of Table 2): MEL and Jurkat cells; for Cytotoxicity (remark in Table 1): cells not given
Experimental: as §2

[7] = test system: MEL cells; experiment: Flow cytometric measurement of cell viability (PI uptake), MEL cells; assay type: cell-based; conditions: 48 h
Experimental: as §1, §2

[8] = biological target: T1, Kv1.3; conditions: cited from earlier work
[9] = biological target: Kv1.7 (Homo sapiens, UniProt Q96RP8); experiment: Kv1.7 channel block, estimated Kd (Table 1); assay type: binding
[10] = biological target: IK (Homo sapiens, UniProt O15554); experiment: IK channel inhibition (Table 1); assay type: binding; conditions: at 20 μM
[11] = biological target: Kv1.1 (Homo sapiens, UniProt Q09470); experiment: Kv1.1 channel block, estimated Kd (Table 1); assay type: binding
[12] = Kv1.3, area, read-out: Est. Kd, Kd area
[13] = Kv1.3, end, read-out: Est. Kd, Kd end
[14] = Kv1.3, peak, read-out: Est. Kd, Kd peak
[15] = Kv1.5, end, read-out: Est. Kd, Kd end
[16] = Kv1.5, peak, read-out: Est. Kd, Kd peak
[17] = injected intravenously, dose not stated
[18] = Kv1.1, area, read-out: Est. Kd, Kd area
[19] = Kv1.1, end, read-out: Est. Kd, Kd end
[20] = Kv1.1, peak, read-out: Est. Kd, Kd peak

T1 sequence (P22001 whole entry): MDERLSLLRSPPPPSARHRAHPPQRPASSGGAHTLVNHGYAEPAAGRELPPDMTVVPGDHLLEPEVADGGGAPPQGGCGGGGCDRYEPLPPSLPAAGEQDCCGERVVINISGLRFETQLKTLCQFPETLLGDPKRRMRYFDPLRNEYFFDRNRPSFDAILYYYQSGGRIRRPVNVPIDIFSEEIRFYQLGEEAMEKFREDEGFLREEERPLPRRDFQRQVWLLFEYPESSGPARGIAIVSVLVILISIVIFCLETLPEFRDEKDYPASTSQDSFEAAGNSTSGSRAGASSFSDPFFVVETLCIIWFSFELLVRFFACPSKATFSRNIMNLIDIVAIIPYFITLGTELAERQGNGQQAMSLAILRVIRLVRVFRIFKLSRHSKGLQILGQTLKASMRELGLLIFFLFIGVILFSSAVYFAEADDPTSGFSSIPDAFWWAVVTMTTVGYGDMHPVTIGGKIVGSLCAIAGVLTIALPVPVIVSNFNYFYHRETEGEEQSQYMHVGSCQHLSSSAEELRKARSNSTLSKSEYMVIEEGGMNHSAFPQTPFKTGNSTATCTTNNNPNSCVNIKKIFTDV
Sequence of Kv1.5 (P22460 whole entry): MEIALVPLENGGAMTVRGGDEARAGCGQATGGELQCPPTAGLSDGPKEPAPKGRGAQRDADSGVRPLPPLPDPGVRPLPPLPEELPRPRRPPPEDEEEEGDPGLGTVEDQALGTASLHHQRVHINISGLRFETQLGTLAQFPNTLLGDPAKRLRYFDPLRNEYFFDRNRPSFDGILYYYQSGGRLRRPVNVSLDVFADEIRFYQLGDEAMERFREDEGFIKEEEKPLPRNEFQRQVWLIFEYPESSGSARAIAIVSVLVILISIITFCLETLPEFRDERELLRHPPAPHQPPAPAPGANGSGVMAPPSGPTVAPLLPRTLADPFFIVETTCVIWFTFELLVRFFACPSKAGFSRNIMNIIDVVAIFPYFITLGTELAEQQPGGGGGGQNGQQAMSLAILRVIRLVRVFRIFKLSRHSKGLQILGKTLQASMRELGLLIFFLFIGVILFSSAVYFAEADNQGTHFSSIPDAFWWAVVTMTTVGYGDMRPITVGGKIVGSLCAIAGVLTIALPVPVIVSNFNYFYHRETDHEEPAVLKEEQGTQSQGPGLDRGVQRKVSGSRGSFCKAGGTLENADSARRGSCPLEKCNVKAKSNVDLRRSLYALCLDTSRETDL
Sequence of Kv1.1 (Q09470 whole entry): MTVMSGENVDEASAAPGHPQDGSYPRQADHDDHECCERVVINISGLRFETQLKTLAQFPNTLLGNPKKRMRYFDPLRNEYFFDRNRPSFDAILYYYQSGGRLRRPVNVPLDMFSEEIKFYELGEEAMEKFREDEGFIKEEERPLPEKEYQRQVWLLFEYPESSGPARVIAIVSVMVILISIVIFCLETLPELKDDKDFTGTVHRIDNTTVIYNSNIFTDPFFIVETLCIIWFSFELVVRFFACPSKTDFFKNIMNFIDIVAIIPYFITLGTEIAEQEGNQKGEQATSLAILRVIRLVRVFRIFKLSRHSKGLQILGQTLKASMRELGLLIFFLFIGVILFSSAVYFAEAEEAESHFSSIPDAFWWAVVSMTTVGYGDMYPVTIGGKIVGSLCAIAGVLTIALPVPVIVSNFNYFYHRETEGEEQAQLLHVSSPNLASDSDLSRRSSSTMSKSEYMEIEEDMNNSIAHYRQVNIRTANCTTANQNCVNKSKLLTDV
Sequence of Kv1.7 (Q96RP8 whole entry): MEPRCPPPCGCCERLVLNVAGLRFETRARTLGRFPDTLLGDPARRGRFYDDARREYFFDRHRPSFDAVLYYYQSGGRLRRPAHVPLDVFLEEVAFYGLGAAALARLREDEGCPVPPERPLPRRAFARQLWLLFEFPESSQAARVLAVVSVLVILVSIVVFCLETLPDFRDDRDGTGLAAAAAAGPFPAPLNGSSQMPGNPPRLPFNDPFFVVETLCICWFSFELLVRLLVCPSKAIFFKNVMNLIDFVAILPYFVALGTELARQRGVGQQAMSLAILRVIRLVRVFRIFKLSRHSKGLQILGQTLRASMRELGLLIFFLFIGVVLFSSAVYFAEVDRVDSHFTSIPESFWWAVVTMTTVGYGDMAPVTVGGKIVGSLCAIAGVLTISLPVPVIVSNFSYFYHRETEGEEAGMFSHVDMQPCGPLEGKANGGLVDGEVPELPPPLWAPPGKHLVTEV

| SMILES | Kd [1, 13] [nM] | Kd [1, 14] [nM] | percentage of dead cells (PI uptake) ([2]; 100 nM) [%] | percentage of dead cells (PI uptake) ([2]; 1 μM) [%] | percentage of dead cells (PI uptake) ([2]; 2.5 μM) [%] | percentage of dead cells (PI uptake) ([2]; 10 μM) [%] | EC50 [3] [nM] | Cytotoxicity in-vitro (summary of Table 2) [6] | percentage of dead cells (PI uptake) ([7]; 100 nM) [%] | percentage of dead cells (PI uptake) ([7]; 1 μM) [%] | percentage of dead cells (PI uptake) ([7]; 2.5 μM) [%] | percentage of dead cells (PI uptake) ([7]; 10 μM) [%] | other results |
| --- | --- | --- | --- | --- | --- | --- | --- | --- | --- | --- | --- | --- | --- |
| COc1cccc(/C=C/C(=O)c2c(O)c(OC)c3occc3c2OC)c1 (single isomer, unassigned) [Example 24] | 250 to 300 | 900 to 1100 | 2.41 | 2.81 | 2.31 | 9.8 | 1000 | non-cytotoxic | 3.53 | 3.73 | 5.26 | 3.00 | Kd [1, 12]: 800 nM; Antiproliferative potency compared with Example 1 [3]: even more potently antiproliferative; Kd [4, 15]: 6000 nM; Kd [4, 16]: 36000 nM; Toxicity in mice [5, 17]: non-toxic |
| COc1c2occc2cc2ccc(=O)oc12 [8-Methoxypsoralen] | – | – | – | – | – | – | – | – | – | – | – | – | Blocking activity on the Kv1.3 channel ([8]; background): blocking activity |
| COc1c(C(=O)/C=C/c2ccccc2)c(O)c(OC)c2occc12 [Example 1] | 120 | 750 | 3.02 | 1.47 | 1.78 | 8.10 | 1000 | non-cytotoxic | 4.95 | 6.21 | 6.70 | 5.88 | Kd ([1]; T-lymphocytes, read-out: Kd (dissociation constant), block of Kv1.3 voltage gated potassium channel in T-lymphocytes): 400 nM; Block phasic or not ([9]; Kv1.7): phasic; Kd ([9]; Kv1.7, end, read-out: Est. Kd, Kd end): 5000 nM; Kd ([9]; Kv1.7, peak, read-out: Est. Kd, Kd peak): 25000 nM; IK inhibition [10]: no inhibition; Selectivity over Kv1.5 ([4]; Kv1.3 over Kv1.5): Cinnamon needles. Selectivity over Kv1.5 is 25-fold. Mp 125-126; Toxicity in mice ([5]; 30 uM injected intravenously): non-toxic; Kd [11, 18]: 1200 nM; Kd [11, 19]: 700 nM; Kd [11, 20]: 12000 nM |
| COc1c(C(=O)/C=C/c2cccc(O)c2)c(O)c(OC)c2occc12 [Example 18] | 250 | 5000 | 2.57 | 2.22 | 2.59 | 4.70 | 500 | non-cytotoxic | 6.89 | 3.60 | 6.98 | 4.41 | Kd [1, 12]: 700 nM; Antiproliferative potency compared with Example 1 [3]: even more potently antiproliferative; Kd ([9]; Kv1.7, time-independent, read-out: Est. Kd): 50000 nM; Kd [4, 15]: 10000 nM; Kd [4, 16]: 16000 nM; Toxicity in mice [5, 17]: non-toxic; Kd [11, 18]: 1700 nM; Kd [11, 19]: 1000 nM; Kd [11, 20]: 15000 nM |
| COc1c(C(=O)/C=C/c2cc(Br)cs2)c(O)c(OC)c2occc12 [Example 54] | 250 | 4000 | – | – | – | – | – | – | – | – | – | – | Cytotoxicity (remark in Table 1) [6]: Cytotoxic Mp 139 Brown needles |
| COc1c(C(=O)/C=C/c2ccc(C)s2)c(O)c(OC)c2occc12 [Example 55] | 500 | 3000 | – | – | – | – | – | – | – | – | – | – | Cytotoxicity (remark in Table 1) [6]: Cytotoxic Mp 103 Orange prisms |
| COc1c(C(C)=O)c(O)c(OC)c2occc12 [khellinone] | – | – | – | – | – | – | – | – | – | – | – | – | Blocking activity on the Kv1.3 channel [8]: blocking activity |
